These results are taken from ChEMBL document CHEMBL1139192, “Novel bis(indolyl)maleimide pyridinophanes that are potent, selective inhibitors of glycogen synthase kinase-3” (Bioorg Med Chem Lett, 2007).

Assay [1] deals with Platelet-derived growth factor receptor beta (Homo sapiens) (UniProt P09619). Put plainly: Inhibition of human PDGFRbeta at 1 uM relative to control; values are per cent of control.
Assay [2] addresses Casein kinase I isoform delta (Homo sapiens) (UniProt P48730). Put plainly: Inhibition of CK1delta at 1 uM relative to control; values are per cent of control.
The target in assay [3] is T1, Dual specificity mitogen-activated protein kinase kinase 7 (Homo sapiens) (UniProt O14733).
T1 sequence (whole entry): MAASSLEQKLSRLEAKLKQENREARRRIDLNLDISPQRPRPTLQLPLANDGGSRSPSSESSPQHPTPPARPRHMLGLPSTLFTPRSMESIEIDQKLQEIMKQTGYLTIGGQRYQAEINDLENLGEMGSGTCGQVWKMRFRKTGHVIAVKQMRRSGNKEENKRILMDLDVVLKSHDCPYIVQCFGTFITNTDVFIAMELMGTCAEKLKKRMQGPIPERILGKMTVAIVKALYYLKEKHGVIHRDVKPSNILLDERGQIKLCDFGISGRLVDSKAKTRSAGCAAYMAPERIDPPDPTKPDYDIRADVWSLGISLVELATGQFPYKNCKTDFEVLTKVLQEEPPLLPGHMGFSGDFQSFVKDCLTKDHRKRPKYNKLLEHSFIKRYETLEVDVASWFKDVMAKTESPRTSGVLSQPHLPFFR
Put plainly: Inhibition of human MKK7-beta at 1 uM relative to control; values are per cent of control.

The target of assay [4] is T2, Inhibitor of nuclear factor kappa-B kinase subunit beta (Homo sapiens) (UniProt O14920).
T2 sequence (whole entry): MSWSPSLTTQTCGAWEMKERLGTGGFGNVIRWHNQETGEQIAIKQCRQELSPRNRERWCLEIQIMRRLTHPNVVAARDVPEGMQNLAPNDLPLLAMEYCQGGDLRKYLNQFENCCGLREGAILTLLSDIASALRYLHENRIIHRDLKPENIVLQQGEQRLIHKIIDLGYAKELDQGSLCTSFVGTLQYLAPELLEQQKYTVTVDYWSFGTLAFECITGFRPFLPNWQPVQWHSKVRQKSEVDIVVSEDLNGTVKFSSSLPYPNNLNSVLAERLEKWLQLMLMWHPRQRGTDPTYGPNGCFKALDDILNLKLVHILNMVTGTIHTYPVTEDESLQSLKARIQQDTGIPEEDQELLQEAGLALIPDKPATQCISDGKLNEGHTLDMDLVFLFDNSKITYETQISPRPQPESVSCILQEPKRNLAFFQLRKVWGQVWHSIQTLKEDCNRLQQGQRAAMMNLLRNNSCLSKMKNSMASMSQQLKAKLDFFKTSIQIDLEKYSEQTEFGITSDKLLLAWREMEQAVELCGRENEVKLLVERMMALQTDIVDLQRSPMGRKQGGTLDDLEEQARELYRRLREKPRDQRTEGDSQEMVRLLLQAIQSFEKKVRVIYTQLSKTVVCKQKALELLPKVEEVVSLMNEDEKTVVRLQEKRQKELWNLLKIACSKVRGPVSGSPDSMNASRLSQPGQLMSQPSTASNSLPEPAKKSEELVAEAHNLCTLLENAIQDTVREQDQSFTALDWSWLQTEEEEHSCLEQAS
Put plainly: Residual activity of human IKK-beta at 1 uM relative to control.

For assay [5], the target named is Tyrosine-protein kinase BTK (Homo sapiens) (UniProt Q06187). Description: Inhibition of human BTK at 1 uM relative to control; values are per cent of control.
Assay [6] deals with Insulin receptor (Homo sapiens) (UniProt P06213). Put plainly: Residual activity of human IR at 1 uM relative to control.
Insulin receptor (Homo sapiens), sequence (P06213 whole entry, looked up): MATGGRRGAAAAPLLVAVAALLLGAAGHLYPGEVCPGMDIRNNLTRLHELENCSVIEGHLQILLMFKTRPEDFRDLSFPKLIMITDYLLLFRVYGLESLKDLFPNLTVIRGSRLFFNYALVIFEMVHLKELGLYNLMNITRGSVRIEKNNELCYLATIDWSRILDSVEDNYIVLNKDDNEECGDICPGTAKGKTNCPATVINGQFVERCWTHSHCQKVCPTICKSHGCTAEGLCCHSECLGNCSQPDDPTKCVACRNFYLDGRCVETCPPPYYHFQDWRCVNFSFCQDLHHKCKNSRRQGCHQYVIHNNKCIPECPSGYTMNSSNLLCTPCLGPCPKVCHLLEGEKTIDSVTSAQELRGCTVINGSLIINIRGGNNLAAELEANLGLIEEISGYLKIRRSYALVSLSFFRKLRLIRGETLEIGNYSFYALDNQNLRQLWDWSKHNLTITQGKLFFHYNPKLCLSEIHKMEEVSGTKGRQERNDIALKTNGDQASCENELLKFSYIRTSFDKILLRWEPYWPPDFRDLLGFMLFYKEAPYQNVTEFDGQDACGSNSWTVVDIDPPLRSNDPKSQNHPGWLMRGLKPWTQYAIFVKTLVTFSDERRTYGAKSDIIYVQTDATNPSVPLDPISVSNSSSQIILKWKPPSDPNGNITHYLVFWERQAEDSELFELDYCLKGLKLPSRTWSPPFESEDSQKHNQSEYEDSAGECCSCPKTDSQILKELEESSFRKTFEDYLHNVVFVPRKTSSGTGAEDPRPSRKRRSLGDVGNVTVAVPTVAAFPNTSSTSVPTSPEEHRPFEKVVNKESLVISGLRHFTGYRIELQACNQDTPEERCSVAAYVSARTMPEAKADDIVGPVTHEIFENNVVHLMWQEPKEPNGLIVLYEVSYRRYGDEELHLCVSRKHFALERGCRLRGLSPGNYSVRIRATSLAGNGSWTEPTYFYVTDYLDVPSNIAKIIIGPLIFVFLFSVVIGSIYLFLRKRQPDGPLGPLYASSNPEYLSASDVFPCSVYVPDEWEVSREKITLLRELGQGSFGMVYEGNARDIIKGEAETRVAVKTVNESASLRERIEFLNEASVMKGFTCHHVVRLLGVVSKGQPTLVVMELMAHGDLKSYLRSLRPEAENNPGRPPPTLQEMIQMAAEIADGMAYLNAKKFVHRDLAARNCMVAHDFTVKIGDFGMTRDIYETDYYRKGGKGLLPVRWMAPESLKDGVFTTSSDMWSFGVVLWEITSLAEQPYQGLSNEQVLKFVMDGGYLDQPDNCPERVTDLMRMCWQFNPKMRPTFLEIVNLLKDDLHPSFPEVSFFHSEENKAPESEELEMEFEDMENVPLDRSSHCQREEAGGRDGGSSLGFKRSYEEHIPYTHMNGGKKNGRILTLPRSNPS
Assay [7] addresses Protein kinase C theta type (Homo sapiens, UniProt Q04759). Description: Residual activity of human PKCtheta at 1 uM relative to control.
The species entered for a further assay is Homo sapiens. Description: Inhibition of human CDK7/Cyclin H at 1 uM relative to control; values are per cent of control.
Assay [8] addresses T3, Serine/threonine-protein kinase D1 (Homo sapiens) (UniProt Q15139).
T3 sequence (whole entry): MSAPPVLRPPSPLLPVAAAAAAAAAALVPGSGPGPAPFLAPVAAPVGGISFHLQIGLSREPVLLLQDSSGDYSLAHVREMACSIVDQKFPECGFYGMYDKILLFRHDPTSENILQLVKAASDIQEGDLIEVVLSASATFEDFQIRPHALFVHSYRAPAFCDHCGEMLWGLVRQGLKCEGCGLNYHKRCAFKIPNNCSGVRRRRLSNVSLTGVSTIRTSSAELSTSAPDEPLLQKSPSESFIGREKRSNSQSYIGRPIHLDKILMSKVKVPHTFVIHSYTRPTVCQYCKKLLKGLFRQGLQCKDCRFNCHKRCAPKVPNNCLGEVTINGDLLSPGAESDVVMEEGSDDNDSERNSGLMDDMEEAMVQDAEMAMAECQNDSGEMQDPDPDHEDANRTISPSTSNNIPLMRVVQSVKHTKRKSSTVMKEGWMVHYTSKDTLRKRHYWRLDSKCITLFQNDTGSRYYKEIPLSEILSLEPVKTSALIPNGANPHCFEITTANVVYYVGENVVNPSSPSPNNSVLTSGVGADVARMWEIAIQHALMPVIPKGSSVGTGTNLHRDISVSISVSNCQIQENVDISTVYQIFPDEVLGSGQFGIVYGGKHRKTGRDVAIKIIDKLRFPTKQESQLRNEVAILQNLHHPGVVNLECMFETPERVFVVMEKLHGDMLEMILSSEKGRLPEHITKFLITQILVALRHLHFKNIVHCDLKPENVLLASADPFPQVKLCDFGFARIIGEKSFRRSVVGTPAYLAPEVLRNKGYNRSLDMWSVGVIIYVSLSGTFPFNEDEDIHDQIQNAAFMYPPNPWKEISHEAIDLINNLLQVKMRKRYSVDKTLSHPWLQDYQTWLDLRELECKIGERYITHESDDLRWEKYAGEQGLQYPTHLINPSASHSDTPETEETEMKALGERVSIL
Put plainly: Residual activity of human PKCmu at 1 uM relative to control.

Assay [9] deals with Tyrosine-protein kinase ABL2 (Mus musculus) (UniProt Q4JIM5). Put plainly: Residual activity of mouse Arg at 1 uM relative to control.
Tyrosine-protein kinase ABL2 (Mus musculus), sequence (Q4JIM5 whole entry): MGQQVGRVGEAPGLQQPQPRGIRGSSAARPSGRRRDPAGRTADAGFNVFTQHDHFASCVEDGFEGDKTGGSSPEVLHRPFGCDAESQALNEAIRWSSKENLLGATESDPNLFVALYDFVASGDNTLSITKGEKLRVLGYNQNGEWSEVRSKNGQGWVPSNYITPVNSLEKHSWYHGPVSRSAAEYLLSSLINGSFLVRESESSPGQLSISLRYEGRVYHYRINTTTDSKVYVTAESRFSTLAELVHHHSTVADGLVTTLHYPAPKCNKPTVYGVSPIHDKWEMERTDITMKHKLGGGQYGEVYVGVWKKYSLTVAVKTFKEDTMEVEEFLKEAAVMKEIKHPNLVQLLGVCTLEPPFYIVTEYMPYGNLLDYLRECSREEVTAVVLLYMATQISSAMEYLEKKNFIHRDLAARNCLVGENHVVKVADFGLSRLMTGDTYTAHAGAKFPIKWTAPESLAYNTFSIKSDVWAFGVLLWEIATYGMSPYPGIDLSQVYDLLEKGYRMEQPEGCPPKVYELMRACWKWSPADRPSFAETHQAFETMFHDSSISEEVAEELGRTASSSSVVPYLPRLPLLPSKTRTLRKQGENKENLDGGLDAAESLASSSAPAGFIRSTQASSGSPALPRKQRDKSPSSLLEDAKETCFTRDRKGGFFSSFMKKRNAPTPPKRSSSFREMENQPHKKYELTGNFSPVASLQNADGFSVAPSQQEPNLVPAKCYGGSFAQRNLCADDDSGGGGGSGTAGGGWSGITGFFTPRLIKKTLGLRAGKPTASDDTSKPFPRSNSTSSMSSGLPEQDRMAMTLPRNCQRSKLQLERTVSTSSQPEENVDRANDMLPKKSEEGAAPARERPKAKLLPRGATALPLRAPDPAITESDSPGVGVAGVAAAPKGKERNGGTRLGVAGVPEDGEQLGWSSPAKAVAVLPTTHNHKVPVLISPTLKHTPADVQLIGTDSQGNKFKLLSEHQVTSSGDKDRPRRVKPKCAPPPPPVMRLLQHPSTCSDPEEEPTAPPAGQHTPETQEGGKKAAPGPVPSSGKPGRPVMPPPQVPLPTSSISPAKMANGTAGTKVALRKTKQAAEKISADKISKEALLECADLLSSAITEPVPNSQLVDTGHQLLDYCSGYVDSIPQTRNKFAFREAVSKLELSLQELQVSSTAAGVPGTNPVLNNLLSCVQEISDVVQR
The target of assay [10] is BDNF/NT-3 growth factors receptor (Homo sapiens, UniProt Q16620). Description: Residual activity of human TrkB at 1 uM relative to control.
BDNF/NT-3 growth factors receptor, sequence (Q16620 32-822 limits assumed): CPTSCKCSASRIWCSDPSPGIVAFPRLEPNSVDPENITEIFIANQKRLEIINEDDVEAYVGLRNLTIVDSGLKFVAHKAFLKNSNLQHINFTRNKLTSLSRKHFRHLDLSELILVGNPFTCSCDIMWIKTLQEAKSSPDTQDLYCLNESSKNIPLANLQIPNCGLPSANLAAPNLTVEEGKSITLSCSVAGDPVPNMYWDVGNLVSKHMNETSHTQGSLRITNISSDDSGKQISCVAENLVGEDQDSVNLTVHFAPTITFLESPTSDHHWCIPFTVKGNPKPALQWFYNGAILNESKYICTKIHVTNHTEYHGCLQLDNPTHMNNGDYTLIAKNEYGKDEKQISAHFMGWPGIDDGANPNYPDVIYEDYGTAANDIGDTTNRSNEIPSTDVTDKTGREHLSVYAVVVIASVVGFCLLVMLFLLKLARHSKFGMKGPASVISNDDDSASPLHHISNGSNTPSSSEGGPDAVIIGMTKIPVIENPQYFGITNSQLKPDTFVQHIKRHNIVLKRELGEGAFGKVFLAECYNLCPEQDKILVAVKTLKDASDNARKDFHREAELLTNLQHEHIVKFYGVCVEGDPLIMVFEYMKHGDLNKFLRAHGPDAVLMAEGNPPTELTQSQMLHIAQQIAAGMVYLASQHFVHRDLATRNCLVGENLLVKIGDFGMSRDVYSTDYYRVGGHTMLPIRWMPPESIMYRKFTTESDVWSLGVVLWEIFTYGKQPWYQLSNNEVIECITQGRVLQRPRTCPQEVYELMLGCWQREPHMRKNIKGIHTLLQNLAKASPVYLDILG
Assay [11] deals with Platelet-derived growth factor receptor alpha (Homo sapiens) (UniProt P16234). Put plainly: Inhibition of human PDGFRalpha at 1 uM relative to control; values are per cent of control.

Casein kinase I isoform delta (Homo sapiens), sequence (P48730 whole entry, looked up, canonical isoform): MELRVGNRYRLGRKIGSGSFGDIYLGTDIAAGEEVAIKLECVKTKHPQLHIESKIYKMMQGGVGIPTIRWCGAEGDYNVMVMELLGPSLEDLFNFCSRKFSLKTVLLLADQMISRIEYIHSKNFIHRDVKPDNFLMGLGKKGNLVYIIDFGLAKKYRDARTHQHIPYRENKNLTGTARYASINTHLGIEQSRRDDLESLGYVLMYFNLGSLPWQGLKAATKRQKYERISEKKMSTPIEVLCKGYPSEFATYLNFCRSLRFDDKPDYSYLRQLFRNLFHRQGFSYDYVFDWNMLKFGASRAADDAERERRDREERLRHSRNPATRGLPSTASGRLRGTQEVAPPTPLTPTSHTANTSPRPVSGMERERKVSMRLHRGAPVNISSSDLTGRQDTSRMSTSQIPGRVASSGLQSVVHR
Platelet-derived growth factor receptor beta (Homo sapiens), sequence (P09619 whole entry, canonical isoform): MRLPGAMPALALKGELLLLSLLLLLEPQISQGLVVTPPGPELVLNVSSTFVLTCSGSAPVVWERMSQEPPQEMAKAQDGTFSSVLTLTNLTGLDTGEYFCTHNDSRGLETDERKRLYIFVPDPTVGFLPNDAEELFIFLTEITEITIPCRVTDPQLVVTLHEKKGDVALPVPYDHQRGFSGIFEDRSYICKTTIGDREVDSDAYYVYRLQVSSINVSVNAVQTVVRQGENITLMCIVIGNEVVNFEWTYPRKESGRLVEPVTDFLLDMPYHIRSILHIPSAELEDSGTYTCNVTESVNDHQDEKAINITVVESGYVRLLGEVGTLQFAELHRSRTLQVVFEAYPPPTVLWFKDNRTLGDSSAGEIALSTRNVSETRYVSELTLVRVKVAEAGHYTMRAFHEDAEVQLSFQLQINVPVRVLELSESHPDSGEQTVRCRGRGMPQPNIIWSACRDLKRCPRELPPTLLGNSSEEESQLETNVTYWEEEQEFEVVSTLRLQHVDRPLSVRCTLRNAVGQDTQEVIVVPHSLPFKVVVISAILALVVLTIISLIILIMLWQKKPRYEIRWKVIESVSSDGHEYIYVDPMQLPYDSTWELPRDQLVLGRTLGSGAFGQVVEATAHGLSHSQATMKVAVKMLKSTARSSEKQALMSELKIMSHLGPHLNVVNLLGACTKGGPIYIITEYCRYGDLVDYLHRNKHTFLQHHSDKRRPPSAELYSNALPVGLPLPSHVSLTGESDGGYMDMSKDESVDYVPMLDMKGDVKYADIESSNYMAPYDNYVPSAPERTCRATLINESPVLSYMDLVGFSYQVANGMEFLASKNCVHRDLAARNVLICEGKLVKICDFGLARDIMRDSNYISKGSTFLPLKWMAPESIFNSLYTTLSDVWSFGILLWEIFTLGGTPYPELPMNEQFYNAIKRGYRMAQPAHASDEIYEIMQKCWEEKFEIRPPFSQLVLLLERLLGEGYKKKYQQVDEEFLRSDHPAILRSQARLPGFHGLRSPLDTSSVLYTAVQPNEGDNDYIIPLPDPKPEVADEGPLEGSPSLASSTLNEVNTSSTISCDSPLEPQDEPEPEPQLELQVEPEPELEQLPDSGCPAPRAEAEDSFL

Turning to `O=C1NC(=O)C2=C1c1cn(c3ccccc13)CCCc1ccc(c(N3CCCC3)n1)CCCn1cc2c2ccccc21`, the residual activity in assay [1] was determined as 105%; in assay [2], 109%; in [3], 85%; in [4], 130%; in assay [5] it was 104%; in assay [6], 87%. In addition, the residual activity is 33% in assay [7]; 111% in the assay listed under Homo sapiens; 113% in assay [8]; 130% in [9]; 106% in assay [10]; 113% in assay [11].

Consider `O=C1NC(=O)C2=C1c1cn(c3ccccc13)CCCc1cc(nc(N3CCCC3)c1)CCCn1cc2c2ccccc21`, for which the residual activity stood at 103% in assay [1]; 112% in [2]; 97% in assay [3]; 125% in assay [4]; 106% in [5]; 110% in assay [6]. For the same compound, the residual activity in [7] is 29%; in the assay listed under Homo sapiens it was 107%; in assay [8], 118%; in [9] it was 121%; in [10], 105%; in [11], 126%.

With `CN(C)c1nc2ccc1CCCn1cc(c3ccccc31)C1=C(C(=O)NC1=O)c1cn(c3ccccc13)CC2`, the residual activity in [1] came to 147%; in assay [2], 107%; in assay [3], 88%; in assay [4], 128%; in [5] it was 105%; in assay [6], 91%. In addition, the residual activity in [7] was determined as 21%; in the assay listed under Homo sapiens, 89%; in [8] it was 110%; in assay [9], 113%; in assay [11] it was 107%.

For the compound `CN(C)c1cc2cc(n1)CCCn1cc(c3ccccc31)C1=C(C(=O)NC1=O)c1cn(c3ccccc13)CCC2`, the residual activity in assay [1] stood at 101%; in assay [2] it was 111%; in assay [3], 78%; in [4], 124%; in assay [5], 106%; in assay [6] it was 102%. For the same compound, the residual activity in [7] is 27%; in the assay listed under Homo sapiens it was 108%; in assay [8] it was 118%; in assay [9] it was 129%; in assay [10], 98%; in assay [11], 119%.
